Data on seven molecules can be found in patent publication US10335392B2, “Cyclic compounds useful as modulators of TNF α” (BRISTOL-MYERS SQUIBB COMPANY, priority 2015, dated 2019).

For the assay, the target named is TNFα (Homo sapiens (Human), UniProt P01375). As to the kind of experiment: TNF induced HEK-Blue assay. The class given is cell-based. As to conditions: TNFα 0.5 ng/ml; HEK-Blue-CD40L cells, NF-kB-driven secreted alkaline phosphatase reporter; 18 h. The protocol: TNF or CD40L-Induced HEK-Blue Assay
Sequence of TNFα (P01375 77-233): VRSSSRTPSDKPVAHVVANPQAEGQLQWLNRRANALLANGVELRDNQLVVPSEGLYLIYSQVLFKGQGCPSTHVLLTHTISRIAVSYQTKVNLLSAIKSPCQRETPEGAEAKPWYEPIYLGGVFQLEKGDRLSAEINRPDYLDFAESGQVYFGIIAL
Test compounds serially diluted in DMSO were plated in an assay plate (LABCYTE, Cat. # LP-0200) at final concentrations ranging from 0.004 μM to 25 μM. TNFα (final concentration 0.5 ng/ml) or CD40L (final concentration 30 ng/ml) in assay buffer [DMEM, 4.5 g/l glucose (Gibco, Cat. 21063-029), 10% FBS (Sigma, F4135), 1% Penicillin-Streptomycin (Gibco, Cat. 15140-122), 1% Anti-Anti (Gibco, Cat. 15240-112) and 2 mM L-glutamine (Gibco, Cat. 25030-081)] was then added to the assay plate. After a 30 minute pre-incubation at 37° C. and 5% CO2, HEK-Blue™-CD40L cells (INVIVOGEN, Cat. Code hkb-cd40) containing a NF-kB-driven secreted alkaline phosphatase reporter gene were seeded into the assay plate at a density of 20,000 cells per well. This plate was then incubated for 18 h at 37° C. and 5% CO2. Secreted alkaline phosphatase expression was measured using QUANTI-Blue™ (INVIVOGEN, Cat. Code rep-qb1) according to manufacturer's specifications and the assay plate was read on a PerkinElmer Envision at 620 nm.
Inhibition data for the test compound over a range of concentrations was plotted as percentage inhibition of the test compound (100%=maximum inhibition). IC50 values were determined after correcting for background [(sample read−mean of low control)/(mean of high control−mean of low control)] where by the low control is DMSO without stimulation and high control is DMSO with stimulation. The IC50 is defined as the concentration of test compound which produces 50% inhibition and was quantified using the 4 parameter logistic equation to fit the data.
A word on the IC50: it is the midpoint of a concentration-inhibition curve. Read a high IC50 as weaker potency in that assay. `CC(C)(O)c1ncc(-c2cc3c(cc2F)nc2n3[C@@H](c3ccccc3Oc3ccccc3F)[C@@H]3C[C@H]23)cn1` [Example 29, 2-(5-((1aS,8R,8aR)-4-fluoro-8-(2-(2-fluorophenoxy)phenyl)-1,1a,8,8a-tetrahydrobenzo[d]cyclopropa[3,4]pyrrolo[1,2-a]imidazol-5-yl)pyrimidin-2-yl)propan-2-ol] gave an IC50 of 1 to 10 µM.
The same measure for `CC(C)(O)c1ncc(-c2cc3c(cc2F)nc2n3[C@H](c3ccccc3Oc3ccccc3F)[C@@H]3C[C@H]23)cn1` [Example 30, 2-(5-((1aS,8S,8aR)-4-fluoro-8-(2-(2-fluorophenoxy)phenyl)-1,1a,8,8a-tetrahydrobenzo[d]cyclopropa[3,4]pyrrolo[1,2-a]imidazol-5-yl)pyrimidin-2-yl)propan-2-ol]: 10 to 25 µM.
The same measure for `Fc1cc2nc3n(c2cc1-c1cnc(N2CCOCC2)nc1)[C@@H](c1ccccc1OC(F)F)[C@@H]1C[C@H]31` [Example 31, 4-(5-((1aS,8R,8aR)-8-(2-(difluoromethoxy)phenyl)-4-fluoro-1,1a,8,8a-tetrahydrobenzo[d]cyclopropa[3,4]pyrrolo[1,2-a]imidazol-5-yl)pyrimidin-2-yl) morpholine]: less than 1 µM.
`Fc1cc2nc3n(c2cc1-c1cnc(N2CCOCC2)nc1)[C@H](c1ccccc1OC(F)F)[C@@H]1C[C@H]31` [Example 32, 4-(5-((1aS,8S,8aR)-8-(2-(difluoromethoxy)phenyl)-4-fluoro-1,1a,8,8a-tetrahydrobenzo[d]cyclopropa[3,4]pyrrolo[1,2-a]imidazol-5-yl)pyrimidin-2-yl) morpholine] gave a 50% inhibitory concentration (IC50) of 1 to 10 µM.
As for `O=C(O)CN1CCN(c2ncc(-c3cc4c(cc3F)nc3n4[C@@H](c4ccccc4OC(F)F)[C@@H]4C[C@H]34)cn2)CC1` [Example 33, 2-(4-(5-((1aS,8R,8aR)-8-(2-(difluoromethoxy)phenyl)-4-fluoro-1,1a,8,8a-tetrahydrobenzo[d]cyclopropa[3,4]pyrrolo[1,2-a]imidazol-5-yl)pyrimidin-2-yl)piperazin-1-yl)acetic acid], the figure is less than 1 µM; as for `CC(C)(O)c1ncc(-c2cc3c(cc2F)nc2n3[C@@H](c3ccccc3OCc3ccncc3)[C@@H]3C[C@H]23)cn1` [Example 34, 2-(5-((1aS,8R,8aR)-4-fluoro-8-(2-(pyridin-4-ylmethoxy)phenyl)-1,1a,8,8a-tetrahydrobenzo[d]cyclopropa[3,4]pyrrolo[1,2-a]imidazol-5-yl)pyrimidin-2-yl)propan-2-ol], 1 to 10 µM.
In turn, `CC(C)(O)c1ncc(-c2cc3c(cc2F)nc2n3[C@H](c3ccccc3OCc3ccncc3)[C@@H]3C[C@H]23)cn1` [Example 35, 2-(5-((1aS,8S,8aR)-4-fluoro-8-(2-(pyridin-4-ylmethoxy)phenyl)-1,1a,8,8a-tetrahydrobenzo[d]cyclopropa[3,4]pyrrolo[1,2-a]imidazol-5-yl)pyrimidin-2-yl)propan-2-ol] came in with an IC50 of 10 to 25 µM.
